From patent US20240269112A1 (priority 2020, published 2024) come the findings set out here.

Each structure is given as a SMILES string.

Data set [1] concerns Covid-19 patients admitted to the ICU. Nature of the data set: Efficacy and safety of IV melatonin in Covid-19 patients admitted to the ICU: hospital/ICU stay, mechanical ventilation, adverse reactions. Format: in vivo, human. Here is the method: (§1) To conduct this study, all patients received standard treatment according to institutional protocols. Furthermore, patients were assigned randomly in a 2:1 ratio to receive: • Experimental group (12 patients): 7 days of 5 mg/kg body weight/day of intravenous melatonin every 6 hours. Daily maximum dose of 500 mg a day. • Control group (6 patients): 7 days of 5 mg/kg body weight/day of placebo with identical appearance through the intravenous route every 6 hours.
(§2) After 3 days of treatment, 3 intensive care physicians evaluated each participant and decided whether or not they wished to complete the treatment based on their clinical assessment: • If there were objective or subjective signs of improvement or non-worsening of general clinical condition or respiratory failure, with no observation of inflammatory condition or multiorgan failure, the participant continued treatment until completion. • If an adverse effect or clinical deterioration which can be objectively or subjectively attributed to the study drug was observed, treatment was discontinued.
(§3) The injectable composition was prepared according to the criteria established in Example 1 by adjusting the amounts to 5 mg/kg body weight/day of intravenous melatonin every 6 hours.
(§4) • To evaluate whether iv treatment with melatonin reduced the duration of ICU (intensive care unit) admission. • To evaluate whether iv treatment with melatonin reduced the duration of mechanical ventilation (MV). • To evaluate whether iv treatment with melatonin was associated with an increase in MV-free days. • To evaluate whether iv treatment with melatonin is associated with a reduction in systemic inflammatory response, defined by the levels of ferritin, D-dimer, C-reactive protein (CRP) or procalcitonin (PCT) and IL-6. 1. Evaluating Whether iv Treatment with Melatonin Reduced the Duration of ICU (Intensive Care Unit) Admission (See FIG. 7)

Data set [2] has as its system septic patients who have undergone abdominal surgery. As to conditions: human, in vivo. An excerpt:
The following parameters related to kidney function have been determined: • Creatinine is a waste molecule generated from muscle metabolism. Creatinine originates from creatine, a very important molecule for energy production in the muscle. About 2% of creatine in the body is converted into creatinine every day. Creatinine is transported from muscles to the kidney by blood. The kidneys filter most of the creatinine and eliminate it in the urine. Determination of serum creatinine is a test which provides a fairly reliable indication of the state of kidney function. • Urea, the determination of which is the most widely used test to assess kidney function. Urea is the end product of protein and amino acid metabolism. In protein degradation, proteins are split into amino acids and deaminated. Urea is synthesized in the liver with the ammonia that is formed. This is the most important pathway for degrading excess nitrogen in the human body.

In data set [3] the test system is Covid-19 patients admitted to the ICU. Nature of the data set: IV melatonin in Covid-19 ICU patients: systemic inflammatory response (ferritin, D-dimer, CRP, IL-6, lymphocytes). The format is in vivo, human. Here is the method:
as §1, §2, §3, §4

The test system of data set [4] is septic patients who have undergone abdominal surgery. As to the kind of experiment: Clinical study with septic patients: blood parameters (leukocytes, red blood cells, hemoglobin, hematocrit, neutrophils, lymphocytes, platelets). Conditions: regardless of time, p=0.007.
Description: The following blood parameters from these samples were analyzed for each of the participating patients: the number of leukocytes, the number of red blood cells, hemoglobin, hematocrit, percentage of neutrophils, percentage of lymphocytes, and the number of platelets.
The test system is the same in data set [5]. As to conditions: human, in vivo. The source says:
The enzyme lactate dehydrogenase (or also called “lactic acid dehydrogenase” (LDH)), an enzyme which is found in almost all the tissues in the human body, has been determined to detect injuries in tissues such as the liver. It plays an important role in cellular respiration (the process in which glucose from foods is converted into energy which can be used by cells).
Although LDH is abundant in tissue cells, the levels in blood are generally low. However, when tissues are damaged as a result of an injury or a disease, they release more LDH into the blood stream. This increase in the amount of LDH in the blood stream is often caused by the following conditions: liver diseases, heart attacks, anemia, muscle trauma, bone fracture, cancer, infections such as meningitis, encephalitis, or HIV.
This is another data set of the same source.

The test system is the same in data set [6]. Conditions: human, in vivo. This is another data set of the same source.
[7] abbreviates: 5 mg/kg/day iv every 6 hours, 7 days.

As to `COc1ccc2[nH]cc(CCNC(C)=O)c2c1` [melatonin, N-acetyl-5-methoxytryptamine], in data set [1] (5 mg/kg/day for 7 days), the Adverse reactions result was “did not cause any adverse reactions”, the “Increase in the number of days without mechanical ventilation compared to placebo” value is on record as 16 days and the “Reduction in invasive mechanical ventilation compared to placebo” value worked out at 9 days. Besides, in data set [1] (setting [7]), the “Days without mechanical ventilation during hospitalization (MV-free days)” value was determined as 40 days, the “Duration of ICU admission compared to placebo” value is listed as “no significant difference”, the “Duration of invasive mechanical ventilation” value turned out to be 21 days and the “Duration of non-invasive mechanical ventilation” value is 16.5 days. For the same compound, the “Reduction in hospital stay compared to placebo” value in data set [1] (setting [7]) worked out at 15 days. Moreover, in data set [2], the “Levels of creatinine compared between groups A and B in each time point” value was “no statistically significant differences”; the “Levels of urea compared between the two groups in each time point” value is “higher in group B (placebo)”. Further, the Inflammatory response result in data set [3] (5 mg/kg/day for 7 days) was “improvement in the inflammatory response”. Also, the “Levels of dimer-D (D-dimer)” value in data set [3] (during the days of treatment, FIG. 2) is “reduction”. Also, in data set [3] (during the days of treatment, FIG. 3), the Levels of ferritin result is given as “reduction”. The “Levels of CRP” value in data set [3] (during the days of treatment, FIG. 4) is “reduction”. Further, the IL6 result in data set [3] (during the days of treatment, FIG. 5) is “reduction”. Further, in data set [3] (during treatment), the Bilirubin entry is “has to drop” and the Neutrophils entry is listed as “tendency of neutrophils decreasing”. Further, the “Lymphocytes with respect to placebo” value in data set [3] (during treatment, FIG. 6) is “increase”. In data set [4], the “Neutrophil average, group A compared with group B (placebo)” value was “higher in group B (placebo) than in group A (melatonin)”. Besides, the “Levels of LDH compared between the two groups in each time point” value in data set [5] was “higher in group A (melatonin)”. In addition, in data set [6], the “ALP (alkaline phosphatase): average values between groups” value is “not statistically significant”, the “GGT: average values between groups” value is given as “not statistically significant”, the “GOT: differences in average values between groups” value is on record as “not statistically significant” and the “GPT: average values between groups” value was “not statistically significant”.
